Measured values as given in patent US8466176B2 (priority 2008, dated 2013).

Tests used:
[1] = logP by HPLC on reversed phase columns, method [a], pH 2.3 with 0.1% phosphoric acid and acetonitrile; format: physicochemical; conditions: method [a]: pH 2.3, 0.1% phosphoric acid and acetonitrile as eluent, EEC directive 79/831 Annex V.A8, reversed phase HPLC; for chromatographic logP: reversed phase HPLC columns, read-out: log p
Phytophthora infestans = assay: whole plant or invertebrate; format: in vivo; conditions: in Solanum lycopersicum, 168 h, read-out: efficacy
[2] = logP(HCOOH) reported with HPLC/MS
[3] = method [b]: LC-MS at pH 2.7, 0.1% formic acid in water and acetonitrile, linear gradient 10% to 95% acetonitrile
[4] = method [b]: LC-MS, pH 2.7 with 0.1% formic acid in water and acetonitrile (0.1% formic acid), linear gradient 10% to 95% acetonitrile
[5] = HCOOH (formic acid), logP(HCOOH), HPLC/MS

| Structure (SMILES) | log p [1] | also measured |
| --- | --- | --- |
| Cn1nnnc1C(=NOCc1cccc(C#CC2CCCCC2)n1)c1ccccc1 [Example 30] | 4.77^[a] |  |
| Cn1nnnc1C(=NOCc1cccc(C#CC[Si](C)(C)C)n1)c1ccccc1 [Example 26] | 4.61^[a] |  |
| CCCC#Cc1cccc(CON=C(c2ccccc2)c2nnnn2C)n1 [Example 27] | 3.83^[a] |  |
| CCCCC/C=C/c1cccc(CON=C(c2ccccc2)c2nnnn2C)n1 [Example 90] | 5^[a] |  |
| COc1cccc(/C=C/c2cccc(CON=C(c3ccccc3)c3nnnn3C)n2)c1 [Example 87] | 4.14^[a] |  |
| COCCCN(C)c1nc(CON=C(c2ccccc2)c2nnnn2C)cs1 [Example 46] | 2.59^[a] |  |
| Cn1nnnc1C(=NOCc1csc(C#CC2CCCCC2)n1)c1ccccc1 [Example 68] | 4.89^[a] |  |
| CCCCCCN(C)c1nc(CON=C(c2ccccc2)c2nnnn2C)cs1 [Example 50] | 4.56^[a] |  |
| CC(C)CC#Cc1nc(CON=C(c2ccccc2)c2nnnn2C)cs1 [Example 61] | 4.34^[a] |  |
| Cn1nnnc1C(=NOCc1cccc(/C=C/c2cccc(F)c2)n1)c1ccccc1 [Example 91] | 4.29^[a] |  |
| CCCCCC/C=C/c1nc(CON=C(c2ccccc2)c2nnnn2C)cs1 [Example 82] | 5.53^[a] |  |
| Cn1nnnc1C(=NOCc1cccc(NCCC2CCCCC2)n1)c1ccccc1 [Example 80, N-(2-cyclohexylethyl)-6-[({[(1-methyl-1H-tetrazol-5-yl)(phenyl)methylene]amino}oxy)methyl]pyridin-2-amine] |  | pest or weed control at 500 ppm (Phytophthora infestans): ≥ 70% |
| CCCCC#Cc1nc(CON=C(c2ccccc2)c2nnnn2C)cs1 [Example 72] | 4.36^[a] |  |
| Cn1nnnc1C(=NOCc1csc(/C=C/C2CCCCC2)n1)c1ccccc1 [Example 89] | 5.14^[a] |  |
| Cn1nnnc1C(=NOCc1csc(C#CC2CCCC2)n1)c1ccccc1 [Example 69] | 4.49^[a] |  |
| CCCCOc1ccc(-c2cccc(CON=C(c3ccccc3)c3nnnn3C)n2)cc1 [Example 39] | 5.2^[a] |  |
| COc1cccc(-c2cccc(CON=C(c3ccccc3)c3nnnn3C)n2)c1 [Example 33] | 3.89^[a] |  |
| CCCC(C)C#Cc1nc(CON=C(c2ccccc2)c2nnnn2C)cs1 (stereo not shown) [Example 64] | 4.78^[a] |  |
| Cn1nnnc1C(=NOCc1cccc(-c2ccc(OC(F)(F)F)cc2)n1)c1ccccc1 [Example 40] | 4.73^[a] |  |
| Cn1nnnc1C(=NOCc1cccc(-c2ccc(-c3ccccc3)cc2)n1)c1ccccc1 [Example 35] | 5.05^[a] |  |
| Cn1nnnc1C(=NOCc1cccc(C#CC(C)(C)C)n1)c1ccccc1 [Example 22] | 4.19^[a] |  |
| CCCCCSc1cccc(CON=C(c2ccccc2)c2nnnn2C)n1 [Example 74, 1-(1-methyl-1H-tetrazol-5-yl)-N-{[6-(pentylsulfanyl)pyridin-2-yl]methoxy}-1-phenylmethanimine] |  | chromatographic logP [1]: 5.14; chromatographic logP ([2]; HPLC/MS, logP(HCOOH)): 5.97 |
| Cn1nnnc1C(=NOCc1csc(C#CCC2CCCCC2)n1)c1ccccc1 [Example 67] | 5.32^[a] |  |

| Structure (SMILES) | log p [1] | also measured |
| --- | --- | --- |
| CC(C)[Si](C#Cc1cccc(CON=C(c2ccccc2)c2nnnn2C)n1)(C(C)C)C(C)C [Example 28] | 6.83^[a] |  |
| Cn1nnnc1C(=NOCc1cccc(/C=C/c2cc(F)cc(F)c2)n1)c1ccccc1 [Example 95] | 4.49^[a] |  |
| Cn1nnnc1C(=NOCc1csc(C#Cc2ccccc2)n1)c1ccccc1 [Example 59] | 4.16^[a] |  |
| CN(CCc1ccccc1)c1nc(CON=C(c2ccccc2)c2nnnn2C)cs1 [Example 37] | 3.96^[a] |  |
| CC(C)CCC#Cc1nc(CON=C(c2ccccc2)c2nnnn2C)cs1 [Example 65] | 4.75^[a] |  |
| Cn1nnnc1C(=NOCc1cccc(-c2ccc(C(F)(F)F)cc2)n1)c1ccccc1 [Example 34] | 4.62^[a] |  |
| Cn1nnnc1C(=NOCc1cccc(-c2cccc(CON=C(c3ccccc3)c3nnnn3C)n2)n1)c1ccccc1 [Example 21] | 4.36^[a] |  |
| Cn1nnnc1C(=NOCc1cccc(-c2cccc(Cl)c2)n1)c1ccccc1 [Example 47] | 4.49^[a] |  |
| Cn1nnnc1C(=NOCc1cccc(C#CC2CCCC2)n1)c1ccccc1 [Example 29] | 4.34^[a] |  |
| Cn1nnnc1C(=NOCc1csc(N2CCCCC2)n1)c1ccccc1 [Example 49] | 3.39^[a] |  |
| Cn1nnnc1C(=NOCc1csc(/C=C/Cc2ccccc2)n1)c1ccccc1 [Example 88] | 4.29^[a] |  |
| CCCCC#Cc1cccc(CON=C(c2ccccc2)c2nnnn2C)n1 [Example 23, N-{[6-(hex-1-yn-1-yl)pyridin-2-yl]methoxy}-1-(1-methyl-1H-tetrazol-5-yl)-1-phenylmethanimine] |  | pest or weed control at 500 ppm (Phytophthora infestans): ≥ 70% |
| Cn1nnnc1C(=NOCc1csc(C#CCCCc2ccccc2)n1)c1ccccc1 [Example 62] | 4.78^[a] |  |
| CCCCOc1cccc(-c2cccc(CON=C(c3ccccc3)c3nnnn3C)n2)c1 [Example 44] | 5.2^[a] |  |
| Cn1nnnc1C(=NOCc1cccc(C(F)(F)C(F)(F)C(F)(F)C(F)(F)C(F)(F)C(F)(F)C(F)(F)F)n1)c1ccccc1 [Example 73] | 5.86^[a] |  |
| C#Cc1cccc(CON=C(c2ccccc2)c2nnnn2C)n1 [Example 19] | 2.69^[a]; | log p [2, 3]: 2.7^[b] |
| CCCCC/C=C/c1nc(CON=C(c2ccccc2)c2nnnn2C)cs1 [Example 81] | 5.05^[a] |  |
| Cn1nnnc1C(=NOCc1cccc(-c2cccc(C(F)(F)F)c2)n1)c1ccccc1 [Example 45] | 4.56^[a] |  |
| Cn1nnnc1C(=NOCc1cccc(-c2cc(Cl)cc(Cl)c2)n1)c1ccccc1 [Example 41] | 5.23^[a] |  |
| CCCCCCOc1cccc(CON=C(c2ccccc2)c2nnnn2C)n1 [Example 20, N-{[6-(hexyloxy)pyridin-2-yl]methoxy}-1-(1-methyl-1H-tetrazol-5-yl)-1-phenylmethanimine] |  | chromatographic logP [1]: 5.39; chromatographic logP ([2]; logP(HCOOH), HPLC/MS): 5.39 |
| Cn1nnnc1C(=NOCc1cccc(/C=C/Cc2ccccc2)n1)c1ccccc1 [Example 94] | 4.31^[a] |  |
| Cn1nnnc1C(=NOCc1cccc(C#Cc2ccccc2)n1)c1ccccc1 [Example 25] | 4.04^[a] |  |
| CCc1ccc(-c2cccc(CON=C(c3ccccc3)c3nnnn3C)n2)cc1 [Example 38] | 4.7^[a] |  |

| Structure (SMILES) | log p [1] | also measured |
| --- | --- | --- |
| CCCCCN(C)c1nc(CON=C(c2ccccc2)c2nnnn2C)cs1 [Example 51] | 4.01^[a] |  |
| COCC#Cc1nc(CON=C(c2ccccc2)c2nnnn2C)cs1 [Example 71] | 2.92^[a] |  |
| CCCCCC/C=C/c1cccc(CON=C(c2ccccc2)c2nnnn2C)n1 [Example 92] | 5.5^[a] |  |
| Cn1nnnc1C(=NOCc1csc(C#CCC2CCCC2)n1)c1ccccc1 [Example 66] | 4.92^[a] |  |
| Cc1sc(C#CCC2CCCC2)nc1CON=C(c1ccccc1)c1nnnn1C [Example 185] |  | log p [2, 4]: 5.2^[b] |
| CCCCSC(=O)Nc1cccc(CON=C(c2ccccc2)c2nnnn2C)n1 [S-butyl {6-[({[(1-methyl-1H-tetrazol-5-yl)(phenyl)methylene]amino}oxy)methyl]pyridin-2-yl}carbamothioate] |  | chromatographic logP [2, 5]: 4.25 |
| CC(C)c1ccc(C#Cc2cccc(CON=C(c3ccccc3)c3nnnn3C)n2)cc1 [Example 229] |  | log p [2, 4]: 5.14^[b] |
| CN(Cc1ccccc1)c1nc(CON=C(c2ccccc2)c2nnnn2C)cs1 [Example 48] | 3.89^[a] |  |
| Cn1nnnc1C(=NOCc1cccc(C#CCCCCCl)n1)c1ccccc1 [Example 211] |  | log p [2, 4]: 3.99^[b] |
| Cn1nnnc1C(=NOCc1nc(C#CC2CCCCC2)sc1Cl)c1ccccc1 [Example 120] |  | log p [2, 3]: 5.75^[b] |
| Cn1nnnc1C(=NOCc1cccc(NCC2CC2)n1)c1ccccc1 [Example 144] |  | log p ([2]; method [a]: HPLC on reversed phase columns, pH 2.3 with 0.1% phosphoric acid and acetonitrile as eluent): 1.75^[a] |
| CN(C)c1cccc(C(=NOCc2cccc(N)n2)c2nnnn2C)c1 [6-{[({[3-(dimethylamino)phenyl](1-methyl-1H-tetrazol-5-yl)methylene}amino)oxy]methyl}pyridin-2-amine] |  | chromatographic logP [2, 5]: 1.19 |
| CN(C)c1cccc(C(=NO)c2nnnn2C)c1 [3-[(hydroxyimino)(1-methyl-1H-tetrazol-5-yl)methyl]-N,N-dimethylaniline] |  | chromatographic logP [2, 5]: 1.17 |
| COc1ccc(CON=C(c2ccccc2)c2nnnn2C)nc1C#CCC1CCCCC1 [Example 129] |  | log p [2, 3]: 4.84^[b] |
| Cn1nnnc1C(=NOCc1cccc(-c2ccc(OCc3ccccc3)cc2)n1)c1ccccc1 [Example 36] | 4.89^[a] |  |
| CC(C)(C)OC(=O)N(CCC1CCCCC1)c1cccc(CO)n1 [tert-butyl (2-cyclohexylethyl)[6-(hydroxymethyl)pyridin-2-yl]carbamate] |  | chromatographic logP ([2]; logP(HCOOH), HPLC/MS): 4.49 |
| Cc1nnnn1C(=NOCc1csc(C#CCCCC#N)n1)c1ccccc1 [Example 171] |  | log p [2, 4]: 3.02^[b] |
| Cn1nnnc1C(=NOCc1cccc(CNC(=O)Cc2ccccc2)n1)c1ccccc1 [Example 54] |  | log p [2, 3]: 2.7^[b] |
| CON(C)C(=O)c1cccc(N(C)C)c1 [3-(dimethylamino)-N-methoxy-N-methylbenzamide] |  | chromatographic logP [2, 5]: 0.95 |
| Cn1nnnc1C(=NOCc1csc(C#Cc2ccc(OC(F)(F)F)cc2)n1)c1ccccc1 [Example 266] |  | log p [2, 4]: 4.89^[b] |
| Cn1nnnc1C(=NOCc1cccc(C#CCn2ccc(C(F)(F)F)n2)n1)c1ccccc1 [Example 110] |  | log p [2, 3]: 3.62^[b] |
